# In PMC8151276, “An Integrated Approach toward NanoBRET Tracers for Analysis of GPCR Ligand Engagement” (Molecules, 2021):
# Target: T1, RXFP1 (Homo sapiens, UniProt Q9HBX9)
# T1 construct: purchased Promega (in-house HiBiT-GPCR construct library, NanoBRET)
# T1 sequence (Q9HBX9 1-757): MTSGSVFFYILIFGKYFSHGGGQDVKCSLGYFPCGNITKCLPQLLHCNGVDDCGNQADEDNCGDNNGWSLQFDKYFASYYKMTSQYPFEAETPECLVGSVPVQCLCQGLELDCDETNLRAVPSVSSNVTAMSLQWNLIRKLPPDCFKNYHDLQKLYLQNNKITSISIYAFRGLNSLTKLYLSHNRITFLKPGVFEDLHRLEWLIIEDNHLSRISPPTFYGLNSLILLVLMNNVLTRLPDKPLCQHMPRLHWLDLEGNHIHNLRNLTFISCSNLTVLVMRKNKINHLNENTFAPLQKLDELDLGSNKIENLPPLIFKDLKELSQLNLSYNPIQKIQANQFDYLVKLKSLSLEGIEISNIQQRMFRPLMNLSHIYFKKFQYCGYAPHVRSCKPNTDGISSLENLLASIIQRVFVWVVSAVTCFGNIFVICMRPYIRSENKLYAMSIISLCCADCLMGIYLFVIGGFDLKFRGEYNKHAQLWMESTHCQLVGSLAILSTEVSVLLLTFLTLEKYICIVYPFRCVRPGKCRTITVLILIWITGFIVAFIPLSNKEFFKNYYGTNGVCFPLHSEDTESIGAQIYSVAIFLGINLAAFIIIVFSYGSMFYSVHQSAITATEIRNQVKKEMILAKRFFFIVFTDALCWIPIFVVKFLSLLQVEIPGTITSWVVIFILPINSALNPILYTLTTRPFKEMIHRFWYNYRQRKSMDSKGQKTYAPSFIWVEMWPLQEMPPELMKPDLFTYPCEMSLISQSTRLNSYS
# Assay: NanoBRET screen HiBiT-RXFP1 in HEK293
# Type: binding
# Method: Each tracer candidate was screened across the entire library of HiBiT-GPCR constructs using NanoBRET as the detection modality. As depicted in Figure 4A, the specificity of interactions was evaluated through decrease in BRET due to competitive displacement of a bound tracer by excess parental compound. Each tracer was analyzed for binding to each HiBiT-GPCR fusion in the absence and in the presence of competing parental compound. Briefly, HEK293 cells were transfected with HiBiT-GPCR constructs diluted into promoterless DNA to reduce expression and maximize translocation to the cell surface. Each tracer candidate was then screened at concentrations of 1 μM and 0.1 μM across cells expressing these fusions. Cells were treated for 1.5 h with tracer either alone or in the presence of 20 μM competing parental compound (i.e., control). BRET was measured upon addition of purified LgBiT and subsequent complementation with HiBiT genetically fused to a GPCR. The specificity of interactions was assessed through a decrease in BRET signal due to competitive displacement of the bound tracer. To further gauge the robustness of these interactions, the fold response over the control (i.e., BRETtracer/BRETcontrol) was calculated. We chose a 1.5-fold response, which translates to ≥7-fold signal over noise as the minimal threshold required to score an interaction as positive.
# HiBiT-GPCR DNA constructs were diluted in 10 mM Tris pH 8 to a final concentration of 0.01 μg/μL, arrayed in 96-well plates and stored at −20 °C. For transfection, HEK293 cells were suspended in Opti-MEM (without phenol red) supplemented with 2% fetal bovine serum (Seradigm) and 100 units/mL penicillin–streptomycin (Gibco) at a final concentration of 220,000 cells/mL and dispensed into white 96-well plates at 90 μL/well. Subsequent transfections and screens were carried using an Agilent Bravo Automated Liquid Handling Platform. First, the 96-well HiBiT DNA arrays were diluted 25-fold in Opti-MEM (without serum or phenol red) to a final concentration of 0.0004 μg/μL and 20 μL of the diluted DNAs were transferred into new 96-well plates. Next, promoterless carrier DNA (1 μg/μL) was diluted 25-fold (0.04 μg/μL) and then dispensed into the diluted arrays at 20 μL/well. Following brief mixing, Viafect transfection reagent (Promega) diluted 16-fold into Opti-MEM was dispensed into the plates at 40 μL/well. After mixing by pipetting, plates were incubated for 10 min on the pipetting station deck. The DNA-transfection reagent complexes were then added to plates containing cells. To facilitate the screen, 10 μL of DNA-transfection reagent complexes were added in duplicates to the top 4 and bottom 4 rows, resulting in two identical 48-well arrays per plate. Plates with transfected cells were incubated for 18–20 h at 37 °C/5% CO2. A screen of each tracer across the entire library using two different concentrations requires duplicate plates of transfected cells. Depending on the number of tracers being screened, transfections can be scaled up using the same ratios. The next day, for each tracer, four 20× screening solutions in tracer dilution buffer (Promega) were prepared: two duplicates at final concentration of 20 μM and two duplicates at a final concentration of 2 μM. […] The four resulting solutions were diluted 4-fold in Opti-MEM without serum or phenol red to generate 5× solutions (5 µM and 0.5 µM tracer +/− 100 μM competing compound). To screen the library, a BioTek MultiFlo FX liquid dispenser was used to dispense 22.5 µL of tracer solution to the top 4 rows and 22.5 µL tracer + competing compound solution to the 4 bottom rows. Plates were briefly mixed on an orbital shaker and incubated for 1.5 h at room temperature. […] Plates were briefly mixed on an orbital shaker and incubated for 15 min to allow complementation.
compound,measurement,setting,value
O=C(CCc1ccc2n1[B-](F)(F)[N+]1=C(c3ccc[nH]3)C=CC1=C2)NCc1ccc(C(=O)NCCOCCC(=O)N[C@@H]2CC[C@@]3(O)[C@H]4Cc5ccc(O)c6c5[C@@]3(CCN4CC3CC3)[C@H]2O6)cc1 [Naltrexone-3-NB590],NanoBRET Fold Response,"RXFP1, tracer 0.1μM",1.31
same,NanoBRET Fold Response,"RXFP1, tracer 1μM",1.24
CN1CCN(C2=Nc3cc(Cl)ccc3N(CC(=O)NCCOCCOCCOCCOCCNC(=O)CCc3ccc4n3[B-](F)(F)[N+]3=C(c5ccc[nH]5)C=CC3=C4)c3ccccc32)CC1 [Clozapine-c-2-NB590],NanoBRET Fold Response,"RXFP1, 0.1μM tracer",0.85
same,NanoBRET Fold Response,"RXFP1, 1μM tracer",1.27
O=C(CCOCCOCCOCCOCCNC(=O)CCc1ccc2n1[B-](F)(F)[N+]1=C(c3ccc[nH]3)C=CC1=C2)NCCCN1CCN(C2=Nc3cc(Cl)ccc3Nc3ccccc32)CC1 [Clozapine-a-2-NB590],NanoBRET Fold Response,"RXFP1, 0.1μM tracer",1.12
same,NanoBRET Fold Response,"RXFP1, 1μM tracer",1.23
CCOC(=O)c1cc(C#N)c(N2CCC(C(=O)NS(=O)(=O)Cc3ccccc3/C=C/C(=O)NCCNC(=O)CCc3ccc4n3[B-](F)(F)[N+]3=C(c5ccc[nH]5)C=CC3=C4)CC2)nc1C [AZD1283-1-NB590],NanoBRET Fold Response,"RXFP1, 0.1μM",1.16
same,NanoBRET Fold Response,"RXFP1, 1μM",0.49
COc1ccc2[nH]c(-c3ccc(CNC(=O)CCOCCOCCOCCOCCNC(=O)CCc4ccc5n4[B-](F)(F)[N+]4=C(c6ccc[nH]6)C=CC4=C5)cc3)c(CCNC(C)=O)c2n1 [AzomelatoninICO9-2-NB590],NanoBRET Fold Response,0.1μM tracer,1.23
same,NanoBRET Fold Response,1μM tracer,1.24
CCCn1c(=O)c2[nH]c(-c3ccc(OCC(=O)NCCNC(=O)CCOCCNC(=O)c4ccc(CNC(=O)CCc5ccc6n5[B-](F)(F)[N+]5=C(c7ccc[nH]7)C=CC5=C6)cc4)cc3)nc2n(CCC)c1=O [XAC-3-NB590],NanoBRET Fold Response,"RXFP1, tracer 0.1μM",1.04
same,NanoBRET Fold Response,"RXFP1, tracer 1μM",0.93
COc1ccccc1N1CCN(CCCCN2C(=O)c3ccc(CNC(=O)CCOCCNC(=O)c4ccc(CNC(=O)CCc5ccc6n5[B-](F)(F)[N+]5=C(c7ccc[nH]7)C=CC5=C6)cc4)cc3C2=O)CC1 [NAN-190-3-NB590],NanoBRET Fold Response,"RXFP1, tracer 0.1μM",0.88
same,NanoBRET Fold Response,"RXFP1, tracer 1μM",0.90
O=C(CCc1ccc2n1[B-](F)(F)[N+]1=C(c3ccc[nH]3)C=CC1=C2)NCc1ccc(C(=O)NCCOCCOCCNCC(O)COc2cccc3ccccc23)cc1 (centres unmarked) [Propranolol-3-NB590],NanoBRET Fold Response,"RXFP1, 0.1μM",0.90
same,NanoBRET Fold Response,"RXFP1, 1μM",0.90
COc1ccc2c(n1)c(CCNC(C)=O)cn2CCNC(=O)CCc1ccc2n1[B-](F)(F)[N+]1=C(c3ccc[nH]3)C=CC1=C2 [Azamelatonin-1-NB590],NanoBRET Fold Response,0.1μM tracer,1.38
same,NanoBRET Fold Response,1μM tracer,1.20
O=C(CCOCCOCCOCCOCCNC(=O)CCc1ccc2n1[B-](F)(F)[N+]1=C(c3ccc[nH]3)C=CC1=C2)NCCCN1CCN(C2=Nc3ccccc3Oc3ccc(Cl)cc32)CC1 [Loxapine-a-2-NB590],NanoBRET Fold Response,"RXFP1, tracer 0.1μM",0.94
same,NanoBRET Fold Response,"RXFP1, tracer 1μM",0.80
COc1ccccc1N1CCN(CCCCN2C(=O)c3ccc(CNC(=O)CCOCCOCCOCCOCCNC(=O)CCc4ccc5n4[B-](F)(F)[N+]4=C(c6ccc[nH]6)C=CC4=C5)cc3C2=O)CC1 [NAN-190-2-NB590],NanoBRET Fold Response,"RXFP1, tracer 0.1μM",0.78
same,NanoBRET Fold Response,"RXFP1, tracer 1μM",0.92
CC(C)N(CC[C@H](c1ccccc1)c1cc(CCNC(=O)c2ccc(CNC(=O)CCc3ccc4n3[B-](F)(F)[N+]3=C(c5ccc[nH]5)C=CC3=C4)cc2)ccc1O)C(C)C [Tolterodine-BZ-NB590],NanoBRET Fold Response,"RXFP1, tracer 0.1μM",1.12
same,NanoBRET Fold Response,"RXFP1, tracer 1μM",1.23
O=C(CCc1ccc2n1[B-](F)(F)[N+]1=C(c3ccc[nH]3)C=CC1=C2)NCCOCCOCCNC(=O)OCCOCCN1CCN(C2=Nc3ccccc3Sc3ccccc32)CC1 [Quetiapine-a-2-NB590],NanoBRET Fold Response,"RXFP1, tracer 0.1μM",0.53
same,NanoBRET Fold Response,"RXFP1, tracer 1μM",1.01
CN1CCN(C2=Nc3cc(Cl)ccc3Nc3ccc(CNC(=O)CCOCCOCCOCCOCCNC(=O)CCc4ccc5n4[B-](F)(F)[N+]4=C(c6ccc[nH]6)C=CC4=C5)cc32)CC1 [Clozapine-b-2-NB590],NanoBRET Fold Response,"RXFP1, 0.1μM tracer",0.90
same,NanoBRET Fold Response,"RXFP1, 1μM tracer",0.75
CC(C)N(CC[C@H](c1ccccc1)c1cc(CCNC(=O)CCOCCOCCOCCOCCNC(=O)CCc2ccc3n2[B-](F)(F)[N+]2=C(c4ccc[nH]4)C=CC2=C3)ccc1O)C(C)C [Tolterodine-2-NB590],NanoBRET Fold Response,"RXFP1, tracer 0.1μM",1.11
same,NanoBRET Fold Response,"RXFP1, tracer 1μM",0.81
Cc1cc2c(s1)Nc1ccccc1N=C2N1CCN(CCCNC(=O)CCOCCOCCOCCOCCNC(=O)CCc2ccc3n2[B-](F)(F)[N+]2=C(c4ccc[nH]4)C=CC2=C3)CC1 [Olanzapine-a-2-NB590],NanoBRET Fold Response,"RXFP1, tracer 0.1μM",1.25
same,NanoBRET Fold Response,"RXFP1, tracer 1μM",0.79
N#CN=C(NCCCOc1cccc(CN2CCCCC2)c1)NCCNC(=O)CCOCCOCCOCCOCCNC(=O)CCc1ccc2n1[B-](F)(F)[N+]1=C(c3ccc[nH]3)C=CC1=C2 [Aminopotentidine-2-NB590],NanoBRET Fold Response,"RXFP1, tracer 0.1μM",0.79
same,NanoBRET Fold Response,"RXFP1, tracer 1μM",1.28
Cc1nc2n(c(=O)c1CCN1CCC(c3noc4cc(F)ccc34)CC1)CCCC2OC(=O)NCCOCCOCCOCCOCCNC(=O)CCc1ccc2n1[B-](F)(F)[N+]1=C(c3ccc[nH]3)C=CC1=C2 (centres unmarked) [Risperidone-2-NB590],NanoBRET Fold Response,"RXFP1, tracer 0.1μM",1.26
same,NanoBRET Fold Response,"RXFP1, tracer 1μM",0.90
CN(C)CCC=C1c2ccccc2CCc2ccc(C(=O)NCCNC(=O)CCOCCOCCOCCOCCNC(=O)CCc3ccc4n3[B-](F)(F)[N+]3=C(c5ccc[nH]5)C=CC3=C4)cc21 [Amitriptyline-b-2-NB590],NanoBRET Fold Response,tracer at 0.1μM,0.90
same,NanoBRET Fold Response,tracer at 1μM,1.13
